Values quoted from earlier work as cited in US12447174B2, “Microdaily EMF protects against oxidative and inflammatory damage, and acute and late adverse effects of EMF radiation” (priority 2021, dated 2025).
Entries after “also recorded” stand apart in the source; their conditions may differ.

Tests used:
[1] = system: microglia cells in culture
[2] = system: male heavy smokers; details: beta-carotene alone
[3] = system: hippocampus and cerebellum of rats; details: RF-EMF 900 MHz 60 min/day for 21 days
[4] = system: rats exposed to 900 MHz radiation; details: compared to EMF irradiated animals not receiving luteolin
[5] = system: kidney of rats; details: 900 MHz
[6] = system: hippocampus of rats; details: prenatal exposure to 900 MHz EMF radiation
[7] = system: N9 microglia cells; details: N9 microglia cells in culture
[8] = system: workers chronically exposed to ELF-EMF radiation from high voltage electricity
[9] = system: Human embryonic kidney cells (HEK293); details: HEK293, 2.4 GHz for 1 h, treatment before exposure
[10] = system: patients with Alzheimer's disease
[11] = system: heart disease; details: humans
[12] = system: porcine blood platelets; details: 1 KHz, 220 V/m, 30 and 60 minutes
[13] = system: rats; details: EMF radiation emitted from mobile phones, supplementation

Molecule: COc1cc(/C=C/C(=O)CC(=O)/C=C/c2ccc(O)c(OC)c2)ccc1O [Curcumin]
- EMF-induced elevation of pro-inflammatory cytokines [1]: prevented
- EMF-induced reduced phagocytic activity [1]: prevented

Molecule: CC1=C(/C=C/C(C)=C/C=C/C(C)=C/C=C/C=C(C)/C=C/C=C(C)/C=C/C2=C(C)CCCC2(C)C)C(C)(C)CCC1 [beta-carotene]
- risk of lung cancer [2]: increased the risk of lung cancer

Molecule: Nc1nc2ncc(CNc3ccc(C(=O)N[C@@H](CCC(=O)O)C(=O)O)cc3)nc2c(=O)[nH]1 [folic acid]
- reduction in pyramidal and granular cells in hippocampus and dentate gyres and Purkinje cell number in cerebellum [3]: decreased these changes

Molecule: O=c1cc(-c2ccc(O)c(O)c2)oc2cc(O)cc(O)c12 [luteolin]
- numbers of Leydig cells, primary spermatocytes, and spermatids [4]: enhanced the number of these cells

Molecule: COc1ccc2[nH]cc(CCNC(C)=O)c2c1 [melatonin]
- EMF radiation induced oxidative damage in the kidney [5]: prevented
- EMF radiation-induced neuronal damage in the hippocampus [6]: prevented EMF radiation-induced neuronal damage

Molecule: CC(C)(C)c1nc2c3cc[nH]c(=O)c3c3cc(F)ccc3c2[nH]1 [pyridone 6]
- EMF radiation induced inflammatory responses [7]: suppressed EMF radiation induced inflammatory responses

Molecule: Oc1ccc(C=Cc2cc(O)cc(O)c2)cc1 [resveratrol]
- increased oxidative stress (damage) from ELF-EMF radiation [8]: reduced this damage

Molecule: [Se] [selenium]
- EMF radiation-induced biochemical changes (MDA, SOD, glutathione peroxidase, apoptosis, caspase-3, Bcl2) [9]: reduced such EMF radiation-induced biochemical changes

Molecule: Vitamin E
- rate of decline in cognitive function ([10]; early phase of Alzheimer's disease): reduced the rate of decline in cognitive function
- treatment effect in Alzheimer's disease ([10]; patients with Alzheimer's disease): ineffective
- effect in heart disease on primary and most secondary outcomes [11]: ineffective

Molecule: omega-3-fatty acids
- EMF radiation-induced neuronal damage in the hippocampus [6]: prevented EMF radiation-induced neuronal damage

Molecule: vitamin A
- EMF-induced increase in malondialdehyde (MDA) levels [12]: significantly attenuated such changes; also recorded: significantly attenuated this damage

Molecule: vitamin D
- EMF radiation impaired immune function [13]: mitigated
